Experimental data published in article PMC5218480 (PLoS ONE, 2017).

Tested on: MV-4-11 cells
Experiment: Gene expression microarray analysis (Affymetrix PrimeView) and GSEA
Assay type: cell-based, human
Design: RFU PODN (11730768_x_at) / Fold change /veh PODN (11730768_x_at) / RFU LINC00158 (11744669_a_at) / Fold change /veh LINC00158 (11744669_a_at) / RFU DUSP10 (11751237_a_at) / Fold change /veh DUSP10 (11751237_a_at) / RFU ID3 (11757404_x_at) / Fold change /veh ID3 (11757404_x_at) / RFU PLEKHG5 (11737974_s_at) / Fold change /veh PLEKHG5 (11737974_s_at) / RFU LRRC4B (11730491_at) / Fold change /veh LRRC4B (11730491_at) / RFU GIMAP4 (11747438_a_at) / Fold change /veh GIMAP4 (11747438_a_at) / RFU KRT8 (11758183_x_at) / Fold change /veh KRT8 (11758183_x_at) / RFU CNN1 (11734310_a_at) / Fold change /veh CNN1 (11734310_a_at) / RFU VPS37D (11726825_at) / Fold change /veh VPS37D (11726825_at) / RFU C10orf10 (11716522_x_at) / Fold change /veh C10orf10 (11716522_x_at) / RFU KIR2DL2 /// KIR2DL4 /// KIR2DL5A /// KIR2DL5B /// KIR2DS1 /// KIR2DS2 /// KIR2DS3 /// KIR2DS4 /// KIR3DL3 /// KIR3DL3 /// KIR3DS1 (11738374_at) / Fold change /veh KIR2DL2 /// KIR2DL4 /// KIR2DL5A /// KIR2DL5B /// KIR2DS1 /// KIR2DS2 /// KIR2DS3 /// KIR2DS4 /// KIR3DL3 /// KIR3DL3 /// KIR3DS1 (11738374_at) / RFU C1QL1 (11718748_at) / Fold change /veh C1QL1 (11718748_at) / RFU TMPRSS4 (11747572_a_at) / Fold change /veh TMPRSS4 (11747572_a_at) / RFU HAMP (11756126_x_at) / Fold change /veh HAMP (11756126_x_at) / RFU RNFT2 (11725882_a_at) / Fold change /veh RNFT2 (11725882_a_at) / RFU NR4A2 (11747474_a_at) / Fold change /veh NR4A2 (11747474_a_at) / RFU ABCC12 (11746883_a_at) / Fold change /veh ABCC12 (11746883_a_at) / RFU TMEM136 (11760407_x_at) / Fold change /veh TMEM136 (11760407_x_at) / RFU CLDN22 /// WWC2 (11732394_at) / Fold change /veh CLDN22 /// WWC2 (11732394_at) / RFU HLA-DPB1 (11760878_x_at) / Fold change /veh HLA-DPB1 (11760878_x_at) / RFU SPINT1 (11716480_a_at) / Fold change /veh SPINT1 (11716480_a_at) / RFU GAP43 (11754022_s_at) / Fold change /veh GAP43 (11754022_s_at) / RFU A4GNT (11735810_at) / Fold change /veh A4GNT (11735810_at) / RFU PRB3 (11715151_x_at) / Fold change /veh PRB3 (11715151_x_at) / RFU TUBB4B (11761932_at) / Fold change /veh TUBB4B (11761932_at) / RFU CAPN14 (11732068_a_at) / Fold change /veh CAPN14 (11732068_a_at) / RFU TMCC2 (11721928_a_at) / Fold change /veh TMCC2 (11721928_a_at) / RFU IRGQ (11745062_a_at) / Fold change /veh IRGQ (11745062_a_at) / RFU FAM174B (11720279_a_at) / Fold change /veh FAM174B (11720279_a_at) / RFU TMPRSS4 (11748680_a_at) / Fold change /veh TMPRSS4 (11748680_a_at) / RFU FAM212B (11763350_a_at) / Fold change /veh FAM212B (11763350_a_at) / RFU PLEKHG5 (11743358_a_at) / Fold change /veh PLEKHG5 (11743358_a_at) / RFU ZSCAN30 (11745921_a_at) / Fold change /veh ZSCAN30 (11745921_a_at) / RFU CMKLR1 (11741424_a_at) / Fold change /veh CMKLR1 (11741424_a_at) / RFU LOC101060620 /// MAPK8IP1 (11723275_at) / Fold change /veh LOC101060620 /// MAPK8IP1 (11723275_at) / RFU SPTSSB (11747773_x_at) / Fold change /veh SPTSSB (11747773_x_at) / RFU PRSS12 (11739890_at) / Fold change /veh PRSS12 (11739890_at) / RFU BIN1 (11741810_x_at) / Fold change /veh BIN1 (11741810_x_at) / RFU WNT11 (11732464_a_at) / Fold change /veh WNT11 (11732464_a_at) / RFU C10orf10 (11716521_a_at) / Fold change /veh C10orf10 (11716521_a_at) / RFU C5orf56 (11738089_at) / Fold change /veh C5orf56 (11738089_at) / RFU CYB561 (11721691_x_at) / Fold change /veh CYB561 (11721691_x_at) / RFU ANKRD19P (11752326_a_at) / Fold change /veh ANKRD19P (11752326_a_at) / RFU OR2T12 /// OR2T33 /// OR2T8 (11738714_s_at) / Fold change /veh OR2T12 /// OR2T33 /// OR2T8 (11738714_s_at) / RFU VCAN (11748164_a_at) / Fold change /veh VCAN (11748164_a_at) / RFU JSRP1 (11732532_at) / Fold change /veh JSRP1 (11732532_at) / RFU KRTAP10-11 (11738290_x_at) / Fold change /veh KRTAP10-11 (11738290_x_at) / RFU MYO3A (11730013_a_at) / Fold change /veh MYO3A (11730013_a_at) / RFU EBF3 (11725865_a_at) / Fold change /veh EBF3 (11725865_a_at) / RFU CAMK2N1 (11719241_x_at) / Fold change /veh CAMK2N1 (11719241_x_at) / RFU C5orf56 (11738088_a_at) / Fold change /veh C5orf56 (11738088_a_at) / RFU OLFML3 (11715873_a_at) / Fold change /veh OLFML3 (11715873_a_at) / RFU LOC100653217 /// NTM (11731650_a_at) / Fold change /veh LOC100653217 /// NTM (11731650_a_at) / RFU MAPK11 (11762145_a_at) / Fold change /veh MAPK11 (11762145_a_at) / RFU FIZ1 (11724087_x_at) / Fold change /veh FIZ1 (11724087_x_at) / RFU OASL (11726364_x_at) / Fold change /veh OASL (11726364_x_at) / RFU SOX15 (11748057_x_at) / Fold change /veh SOX15 (11748057_x_at) / RFU CD79A (11719716_a_at) / Fold change /veh CD79A (11719716_a_at) / RFU HIST1H1D (11736915_at) / Fold change /veh HIST1H1D (11736915_at) / RFU CASKIN2 (11723855_a_at) / Fold change /veh CASKIN2 (11723855_a_at) / RFU LOC730098 (11760151_x_at) / Fold change /veh LOC730098 (11760151_x_at) / RFU OR4N2 (11742367_at) / Fold change /veh OR4N2 (11742367_at) / RFU PRRT2 (11749266_a_at) / Fold change /veh PRRT2 (11749266_a_at) / RFU SNX32 (11753110_a_at) / Fold change /veh SNX32 (11753110_a_at) / RFU CDHR5 (11726645_a_at) / Fold change /veh CDHR5 (11726645_a_at) / RFU RCAN1 (11760418_a_at) / Fold change /veh RCAN1 (11760418_a_at) / RFU FAM167A (11723789_a_at) / Fold change /veh FAM167A (11723789_a_at) / RFU FAM26E (11764081_at) / Fold change /veh FAM26E (11764081_at) / RFU ISYNA1 (11749810_s_at) / Fold change /veh ISYNA1 (11749810_s_at) / RFU ACY1 (11761880_at) / Fold change /veh ACY1 (11761880_at) / RFU 11764098_at / Fold change /veh 11764098_at / RFU SAMD14 (11745864_x_at) / Fold change /veh SAMD14 (11745864_x_at) / RFU NPB (11741838_a_at) / Fold change /veh NPB (11741838_a_at) / RFU TMPRSS6 (11731388_a_at) / Fold change /veh TMPRSS6 (11731388_a_at) / RFU KRTAP10-2 (11738614_at) / Fold change /veh KRTAP10-2 (11738614_at) / RFU ARHGAP8 /// PRR5-ARHGAP8 (11727945_x_at) / Fold change /veh ARHGAP8 /// PRR5-ARHGAP8 (11727945_x_at) / RFU KRTAP5-7 /// NADSYN1 (11734609_at) / Fold change /veh KRTAP5-7 /// NADSYN1 (11734609_at) / RFU RASL12 (11751679_a_at) / Fold change /veh RASL12 (11751679_a_at) / RFU CDKN2B (11736163_a_at) / Fold change /veh CDKN2B (11736163_a_at) / RFU PRF1 (11729649_at) / Fold change /veh PRF1 (11729649_at) / RFU, ZNF638 /// ZNF638-IT1 / Fold change vs veh, ZNF638 /// ZNF638-IT1 / RFU, PANK3 / Fold change vs veh, PANK3 / RFU, SH3YL1 / Fold change vs veh, SH3YL1 / RFU, ZEB2 / Fold change vs veh, ZEB2 / RFU, NRIP1 / Fold change vs veh, NRIP1 / RFU, PTTG1IP / Fold change vs veh, PTTG1IP / RFU, CAPN2 / Fold change vs veh, CAPN2 / RFU, MED14 / Fold change vs veh, MED14 / RFU, SNORA58 / Fold change vs veh, SNORA58 / RFU, C1orf63 / Fold change vs veh, C1orf63 / RFU, LRRFIP1 / Fold change vs veh, LRRFIP1 / RFU, NDUFAF7 / Fold change vs veh, NDUFAF7 / RFU, SLC12A2 / Fold change vs veh, SLC12A2 / RFU, IBTK / Fold change vs veh, IBTK / RFU, ESF1 / Fold change vs veh, ESF1 / Fold change vs veh, TMEM50B / RFU, TAOK1 / Fold change vs veh, TAOK1 / RFU, ACBD3 / Fold change vs veh, ACBD3 / RFU, TMA16 / Fold change vs veh, TMA16 / RFU, RWDD3 / Fold change vs veh, RWDD3 / RFU, BCAT1 / Fold change vs veh, BCAT1 / RFU, EDEM3 / Fold change vs veh, EDEM3 / RFU, TMEM33 / Fold change vs veh, TMEM33 / RFU, WDR75 / Fold change vs veh, WDR75 / RFU, AHCTF1 / Fold change vs veh, AHCTF1 / RFU, TFRC / Fold change vs veh, TFRC / RFU, ZDHHC17 / Fold change vs veh, ZDHHC17 / RFU, NOM1 / Fold change vs veh, NOM1 / RFU, ARL8B / Fold change vs veh, ARL8B / RFU, ZBTB11 / Fold change vs veh, ZBTB11 / RFU, TAMM41 / Fold change vs veh, TAMM41 / RFU, KIAA1704 /// LOC100996395 / Fold change vs veh, KIAA1704 /// LOC100996395 / RFU, ING1 / Fold change vs veh, ING1 / RFU, TRMT61B / Fold change vs veh, TRMT61B / RFU, FUBP3 / Fold change vs veh, FUBP3 / RFU, TP53 / Fold change vs veh, TP53 / RFU, TNKS2 / Fold change vs veh, TNKS2 / RFU, ZFP14 / Fold change vs veh, ZFP14 / RFU, ACTR2 / Fold change vs veh, ACTR2 / RFU, PPP3R1 / Fold change vs veh, PPP3R1 / RFU, PIK3R1 / Fold change vs veh, PIK3R1 / RFU, HNRNPA1 / Fold change vs veh, HNRNPA1 / RFU, RNF170 / Fold change vs veh, RNF170 / RFU, ZNF28 / Fold change vs veh, ZNF28 / RFU, RNGTT / Fold change vs veh, RNGTT / RFU, OGT / Fold change vs veh, OGT / RFU, BRD1 / Fold change vs veh, BRD1 / RFU, MARS / Fold change vs veh, MARS / RFU, ZNF655 / Fold change vs veh, ZNF655 / RFU, FAHD1 / Fold change vs veh, FAHD1 / RFU, BDP1 / Fold change vs veh, BDP1 / RFU, LRRCC1 / Fold change vs veh, LRRCC1 / RFU, ARID1A / Fold change vs veh, ARID1A / RFU, ZNF146 / Fold change vs veh, ZNF146 / RFU, ZNF330 / Fold change vs veh, ZNF330 / RFU, GPN3 / Fold change vs veh, GPN3 / RFU, C9orf123 / Fold change vs veh, C9orf123 / RFU, N4BP2L2 / Fold change vs veh, N4BP2L2 / RFU, ARFIP1 / Fold change vs veh, ARFIP1 / RFU, FAM179B / Fold change vs veh, FAM179B / RFU, BCL10 / Fold change vs veh, BCL10 / RFU, UHRF1BP1L / Fold change vs veh, UHRF1BP1L / RFU, BET1 / Fold change vs veh, BET1 / RFU, CNOT2 / Fold change vs veh, CNOT2 / RFU, ZNF268 / Fold change vs veh, ZNF268 / Fold change vs veh, ZNF507 / RFU, DGCR2 / Fold change vs veh, DGCR2 / RFU, WDSUB1 / Fold change vs veh, WDSUB1 / Fold change vs veh, HSP90B1 /// MIR3652 / RFU, ADSS / Fold change vs veh, ADSS / RFU, GK / Fold change vs veh, GK / RFU, ZNF148 / Fold change vs veh, ZNF148 / RFU, TAF9 / Fold change vs veh, TAF9 / RFU, SLC1A5 / Fold change vs veh, SLC1A5 / RFU, SLMO2 / Fold change vs veh, SLMO2 / RFU, ABCC4 / Fold change vs veh, ABCC4 / RFU, LOC101060439 /// RAP1B / Fold change vs veh, LOC101060439 /// RAP1B / RFU, RFX7 / Fold change vs veh, RFX7 / RFU, GTPBP10 / Fold change vs veh, GTPBP10 / RFU, CNEP1R1 / Fold change vs veh, CNEP1R1 / RFU, BIVM-ERCC5 /// ERCC5 / Fold change vs veh, BIVM-ERCC5 /// ERCC5 / RFU, ILF3 / Fold change vs veh, ILF3 / RFU 11762660_at / Fold change /veh 11762660_at / RFU VCAN (11757783_s_at) / Fold change /veh VCAN (11757783_s_at) / RFU DDX43 (11728927_at) / Fold change /veh DDX43 (11728927_at) / RFU KRT8 (11758188_x_at) / Fold change /veh KRT8 (11758188_x_at) / RFU NKD1 (11759106_at) / Fold change /veh NKD1 (11759106_at) / RFU SRD5A1 (11742802_a_at) / Fold change /veh SRD5A1 (11742802_a_at) / RFU TPSAB1 /// TPSB2 (11721975_s_at) / Fold change /veh TPSAB1 /// TPSB2 (11721975_s_at) / RFU GSTM3 (11746129_a_at) / Fold change /veh GSTM3 (11746129_a_at) / RFU IL23R (11737362_x_at) / Fold change /veh IL23R (11737362_x_at) / RFU TMEM51 (11727254_a_at) / Fold change /veh TMEM51 (11727254_a_at) / RFU PIWIL2 (11732686_x_at) / Fold change /veh PIWIL2 (11732686_x_at) / RFU ORM1 (11744905_x_at) / Fold change /veh ORM1 (11744905_x_at) / RFU CCDC152 (11743942_at) / Fold change /veh CCDC152 (11743942_at) / RFU ECM1 (11717891_a_at) / Fold change /veh ECM1 (11717891_a_at) / RFU IL23R (11748794_a_at) / Fold change /veh IL23R (11748794_a_at) / RFU TNFAIP8L3 (11732012_x_at) / Fold change /veh TNFAIP8L3 (11732012_x_at) / RFU MBOAT4 (11741988_at) / Fold change /veh MBOAT4 (11741988_at) / RFU 11764193_at / Fold change /veh 11764193_at / RFU TMEM53 (11763286_at) / Fold change /veh TMEM53 (11763286_at) / RFU MAGEB2 (11727129_at) / Fold change /veh MAGEB2 (11727129_at) / RFU TMEM200A (11744735_a_at) / Fold change /veh TMEM200A (11744735_a_at) / RFU CCDC152 (11751479_a_at) / Fold change /veh CCDC152 (11751479_a_at) / RFU FAM211A (11726209_a_at) / Fold change /veh FAM211A (11726209_a_at) / RFU RGS16 (11746705_a_at) / Fold change /veh RGS16 (11746705_a_at) / RFU VCAN (11755009_s_at) / Fold change /veh VCAN (11755009_s_at) / RFU RHOB (11743442_s_at) / Fold change /veh RHOB (11743442_s_at) / RFU RGS16 (11720943_a_at) / Fold change /veh RGS16 (11720943_a_at) / RFU RGS16 (11720944_at) / Fold change /veh RGS16 (11720944_at) / RFU, VPS4B / Fold change vs veh, VPS4B / RFU, CREB1 / Fold change vs veh, CREB1 / RFU, DNAJC13 / Fold change vs veh, DNAJC13 / RFU, GNAQ / Fold change vs veh, GNAQ / RFU, CDK5R1 / Fold change vs veh, CDK5R1 / RFU, ZRANB3 / Fold change vs veh, ZRANB3 / RFU, CUL4A / Fold change vs veh, CUL4A / RFU, CCNY / Fold change vs veh, CCNY / RFU, UFL1 / Fold change vs veh, UFL1 / RFU, COG3 / Fold change vs veh, COG3 / RFU, DIAPH2 / Fold change vs veh, DIAPH2 / RFU, SKA2 / Fold change vs veh, SKA2 / RFU, AFF3 / Fold change vs veh, AFF3 / RFU, LMF1 / Fold change vs veh, LMF1 / RFU, IPO11 / Fold change vs veh, IPO11 / RFU, DFFB / Fold change vs veh, DFFB / RFU, FOXP1 / Fold change vs veh, FOXP1 / RFU, CARD8 / Fold change vs veh, CARD8 / RFU, STRN3 / Fold change vs veh, STRN3 / RFU, ADK / Fold change vs veh, ADK / RFU, RASSF2 / Fold change vs veh, RASSF2 / RFU, WIPF1 / Fold change vs veh, WIPF1 / RFU, LARP1B / Fold change vs veh, LARP1B / RFU, RASA1 / Fold change vs veh, RASA1 / RFU, RB1 / Fold change vs veh, RB1 / RFU, PPFIA1 / Fold change vs veh, PPFIA1 / RFU, MAT2A / Fold change vs veh, MAT2A / RFU, CCT5 / Fold change vs veh, CCT5 / RFU, WDR92 / Fold change vs veh, WDR92 / RFU, CUX1 / Fold change vs veh, CUX1 / RFU, TTC7A / Fold change vs veh, TTC7A / RFU, TMEM135 / Fold change vs veh, TMEM135 / RFU, DEPTOR / Fold change vs veh, DEPTOR / RFU, CPM / Fold change vs veh, CPM / RFU, DNAJB6 / Fold change vs veh, DNAJB6 / RFU, CACNA2D3 / Fold change vs veh, CACNA2D3 / RFU, DTX4 / Fold change vs veh, DTX4 / RFU, TFCP2 / Fold change vs veh, TFCP2 / RFU, GMCL1 /// GMCL1P1 / Fold change vs veh, GMCL1 /// GMCL1P1 / RFU, AEBP2 / Fold change vs veh, AEBP2 / RFU, SNHG1 /// SNORD22 /// SNORD25 /// SNORD26 /// SNORD27 /// SNORD28 /// SNORD29 /// SNORD31 / Fold change vs veh, SNHG1 /// SNORD22 /// SNORD25 /// SNORD26 /// SNORD27 /// SNORD28 /// SNORD29 /// SNORD31 / Fold change (Aza/veh), C12orf56 (ProbeSet 11735607_a_at) / Fold change (ACY-1035/veh), C12orf56 (ProbeSet 11735607_a_at) / Fold change (Aza/veh), FGFR1OP (ProbeSet 11751329_s_at) / Fold change (ACY-1035/veh), FGFR1OP (ProbeSet 11751329_s_at) / Fold change (Aza/veh), VPS36 (ProbeSet 11739960_a_at) / Fold change (ACY-1035/veh), VPS36 (ProbeSet 11739960_a_at) / RFU SYPL1 (11715823_x_at) / Fold change /veh SYPL1 (11715823_x_at) / RFU IGFBP7 (11715501_s_at) / Fold change /veh IGFBP7 (11715501_s_at) / RFU REEP3 (11722064_at) / Fold change /veh REEP3 (11722064_at) / RFU IGLL1 (11728026_x_at) / Fold change /veh IGLL1 (11728026_x_at): dose or concentration left out as unconfirmed
Settings: MV-4-11 cells, 48 hours

## Nc1ccc(-c2cccs2)cc1NC(=O)c1ccc2c(c1)cc(C1CC1)n2CCN1CCOCC1 [ACY-1035]
  RFU KRTAP10-2 (11738614_at): 11.58 RFU
